Experimental findings from the NIST ThermoML archive (doi:10.1016/j.jct.2005.09.005) are described below.

The structures appear in SMILES notation. Numbers after ± are expanded uncertainties.

The conditions of data set [1]: Crystal; Adiabatic calorimetry.
Data set [2] can be described thus: Molar enthalpy of transition or fusion. To be noted: Crystal; Adiabatic calorimetry.

In the case of `[2H]O[2H]` [water-d2], the Normal melting temperature in data set [1] is 3.68 ± 0.05 °C. Moreover, the “Molar enthalpy of transition or fusion” value in data set [2] was found to be 1.47 ± 0.0225 kcal/mol.
